Laboratory results: US20030198636A1, “Process for inhibiting complement activation via the alternative pathway” (priority 1997, published 2003)
Residues, ends and D or L forms follow the SMILES beside them. No end group written: not given here.

Experiments:
[1] = target: T1, properdin binding to C3bBb (Homo sapiens, UniProt P01024+P27918); assay: C3b(Bb)-properdin binding inhibition in human serum (ELISA); conditions: peptides; tested as described in Example 2; read-out: IC50, blocking of C3bBb binding
T1 construct: The resulting convertase proteolytically modifies C3, producing the C3b fragment; tissue Sigma Chemical Company (serum)
Description: This assay was carried out as described in Example 1 above with some changes. Briefly, microtiter wells were coated with C3b, washed, blocked and incubated with various concentrations of normal human serum (NHS) (Sigma Chemical Company, Cat. No. S1764) diluted in blocking solution for 2 hours at room temperature. Under the conditions of this binding assay, factor B in serum will bind solid phase-bound C3b and, after cleavage by factor D in serum, generates C3bBb. Properdin is known to bind C3bBb with high affinity (Farries, T. C., P. J. Lachmann, and R. A. Harrison, 1988, Biochem. 252:47-54). Uncoated wells served as background controls. After washing, bound-properdin was detected with the anti-properdin antibody as described in Example 1 above.
To evaluate the effect of the blocking antibody to inhibit properdin binding to C3b(Bb), various concentrations of the blocking antibody described in Example 1 above were added to a fixed concentrations of serum (4% in blocking solution). The amount of properdin bound to C3b(Bb) was detected using the detection system described in Example 1 above.

[2] = tested on: C5b-9 membrane-attack complex (MAC) formation via the alternative pathway; assay: Alternative pathway-dependent MAC assay on LPS-coated wells (ELISA); type: biochemical, human; conditions: peptides; ELISA as described in Example 3; read-out: IC50, inhibition of MAC formation
From the text: The binding data of Examples 1 and 2 above reveal that the properdin monoclonal antibody prevents the binding of properdin to C3b and the functional C3 convertase (C3bBb). […] The final end product of this pathway is the C5b-9 membrane-attack complex (MAC). To analyze the effects of the properdin antibody on MAC formation via the alternative pathways, an assay was utilized in which bacterial LPS was used as a substrate to initiate the alternative complement pathway cascade.
Microtiter wells were coated with LPS (2 μg/50 μl per well) in VBS overnight at 4° C. Uncoated wells served as background controls. After aspirating the LPS solution, wells were treated with blocking solution and incubated with various concentrations of normal human serum. Following a 3 hour incubation at 37° C., deposited MAC was detected with mouse anti-human soluble C5b-9 monoclonal antibody (Quidel, Cat. No. A239) using standard ELISA methodologies essentially as described in the Examples above. The effect of the blocking antibody on the MAC formation was evaluated by adding various concentrations of blocking antibody to a fixed concentration of serum (4% in blocking solution). The amount of inhibition of soluble C5b-9 formation was determined using the antibody detection system described in the Examples above.

[3] = target: T2, binding of properdin to C3b coated plates (Homo sapiens, UniProt P01024); conditions: peptides at 0-200 μg/ml; cited from earlier work
T2 construct: The resulting convertase proteolytically modifies C3, producing the C3b fragment

human C3b = target: T3, human C3b (Homo sapiens, UniProt P01024); assay: C3b-properdin binding ELISA (properdin titration on immobilized C3b); conditions: FIG. 1, read-out: apparent binding constant (concentration of properdin needed to reach half-maximal binding to C3b)
T3 construct: The resulting convertase proteolytically modifies C3, producing the C3b fragment; purchased Calbiochem, San Diego, Calif; 204860
Description: Polystyrene microtiter plates were coated with human C3b (0.5 μg/50 μl per well) (Calbiochem, San Diego, Calif., Cat. No. 204860) in Veronal buffered saline (VBS): (5 mM diethyl barbiturate, 120 mM NaCl, 5 mM MgCl2, 5 mM EGTA) overnight at 4° C. After aspirating the C3b solution, wells were blocked with VBS containing 0.5% human serum albumin (HSA) (Sigma Chemical Company, St. Louis, Mo., Cat. No. A9511) for 2 hours at room temperature. Wells without C3b coating served as background controls. Aliquots of human properdin (or factor P) (Advanced Research Technology, San Diego, Calif., Cat. No. A139) at varying concentrations in blocking solution were added to the wells. Following a 2 hour incubation at room temperature, the wells were extensively rinsed with VBS.
C3b-bound properdin was detected by the addition of mouse monoclonal anti-human properdin antibody (detection antibody) (Quidel, San Diego, Calif., anti-human properdin monoclonal antibody P#2, Cat. No. A235) at 1:1000 dilution in blocking solution, which was allowed to incubate for 1 hour at room temperature. […] After incubation for 10 minutes at 25° C., the reaction of TMB was quenched by the addition of 100 μl of phosphoric acid, and the plate was read at 450 nm in a microplate reader (e.g., SPECTRA MAX 250, Molecular Devices, Sunnyvale, Calif.). […]

[4] = tested on: Fcγ receptors on neutrophils; assay: Chemiluminescence assay for superoxide production in diluted whole blood; type: cell-based; conditions: 5 μg/ml properdin alone
From the text: Such agents may be screened for their ability to activate Fcγ receptors by a variety of assays known in the art. Since superoxide generation is one of the classic responses of neutrophils and other phagocytes to activation via Fcγ receptors (RII), a specific assay for superoxide release from cells in diluted whole blood was utilized to screen and evaluate agents and the possible role of Fcγ receptors in neutrophil activation by such an agent. Monoclonal antibody agents are generally ineffective aggregating agents upon binding to their antigen and thus ineffective to activate Fcγ receptors via immune complex formation. However, Fcγ activation was detected for a blocking anti-properdin monoclonal antibody as follows.
A chemiluminescence assay for superoxide production in diluted whole blood was performed (Tose, M. F. and A. Itamedani, 1992, Am. J. Clin. Pathol. 97:566-573). Fresh blood was collected by a finger prick and rapidly diluted 350-fold into phenol red-free RPMI-1640 media containing Pen-Strep which was buffered with 10 mM HEPES (pH 7.4) at 37° C. The media also contains 10 μM lucigenin (Sigma Chemical Co.), a compound which becomes chemiluminescent when reduced by superoxide. […] At regular intervals, chemiluminescence was monitored by transferring each sample into a liquid scintillation counter (Packard Model 1900 TR) operated in a single photon mode to determine the “cpm”.

IC50 [1] [µM]	IC50 [2] [µM]	Kd (human C3b) [µM]	Compound	compete with properdin for C3 binding [3]	superoxide levels over control levels [4]
400 to 600	268		CC(=O)NCC(=O)N[C@@H](CC(C)C)C(=O)N[C@@H](CS)C(=O)N[C@@H](CCC(N)=O)C(=O)N1CCC[C@H]1C(=O)N[C@@H](CS)C(=O)N[C@@H](CCCNC(=N)N)C(=O)N[C@@H](CO)C(=O)N1CCC[C@H]1C(=O)N[C@@H](CCCNC(=N)N)C(=O)O [Peptide 1] (Ac-GLCQPCRSPR-OH; N-terminus and C-terminus assumed)	compete	
400 to 600	242		Ac-RYRRCVGWNG (N-terminus assumed) [peptide 3]	compete	
400 to 600	335		Ac-CRSPRWSLWS (N-terminus assumed) [peptide 2]	compete	
		~0.001	human properdin: human properdin (or factor P), Advanced Research Technology Cat. No. A139		not significantly elevated
